Results reported in US7138361B2, “Herbicidal heterocycles” (E. I. du Pont de Nemours and Company, priority 2000, dated 2006).

How the values were obtained:
Format in all cases: in vivo
[1] = tested on: barnyardgrass (Echinochloa crus-galli); assay: Test B flooded paddy test; conditions: Rate 1000 g/ha, scale of 0 to 100 where 0 is no effect and 100 is complete control, visually evaluated after 13 to 15 days
Method in brief: (§1)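 Greenhouse-held for 13 to 15 days after treatment at the 2-leaf stage, paddy-grown plants were scored visually against controls on a 0-to-100 control scale; a dash marks no test result.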

[2] = tested on: duck salad (Heteranthera limosa); assay: Test B flooded paddy test; conditions: Rate 1000 g/ha, scale of 0 to 100 where 0 is no effect and 100 is complete control, visually evaluated after 13 to 15 days
Method in brief: as §1

rice (Oryza saliva) = assay: Test B flooded paddy test; conditions: Rate 1000 g/ha, scale of 0 to 100 where 0 is no effect and 100 is complete control, visually evaluated after 13 to 15 days
Method in brief: as §1

[3] = tested on: smallflower flatsedge (Cyperus difformis); assay: Test B flooded paddy test; conditions: Rate 1000 g/ha, scale of 0 to 100 where 0 is no effect and 100 is complete control, visually evaluated after 13 to 15 days
Method in brief: as §1

[4] = tested on: duck salad (Heteranthera limosa); assay: Test C flooded paddy test; conditions: for Ducksalad plant response rating: scale 0 to 100, 0 no effect, 100 complete control
Method in brief: (§2)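 Visually assessed vs untreated controls 12–14 d post-treatment (greenhouse). Flooded paddy plants were at the 2-leaf stage; scale 0 = no effect, 100 = complete control.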

[5] = tested on: smallflower flatsedge (Cyperus difformis); assay: Test C flooded paddy test; conditions: for Flatsedge plant response rating: Flooded Paddy, scale 0 to 100, 0 no effect, 100 complete control; for Plant response rating, Flatsedge / Plant response rating (scale 0 to 100), Flatsedge: flooded paddy test; for Plant response rating, Flatsedge: scale 0 to 100 (0 no effect, 100 complete control)
Method in brief: as §2

[6] = tested on: bermudagrass (Cynodon dactylon); assay: Test C postemergence
Method in brief: (§3)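 Formulation: non-phytotoxic solvent mix incl. surfactant. Pre: applied right after planting. Post: 1–4-leaf seedlings. Read: visual 0–100, day 12–14, greenhouse.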

[7] = tested on: lambsquarters (Chenopodium album); assay: Test C postemergence
Method in brief: as §3

Sunflower = assay: Test C preemergence; conditions: Rate 62 g/ha, scale 0 to 100
[8] = flooded paddy test, Rate 62 g/ha, scale 0 to 100 (0 no effect, 100 complete control)
[9] = flooded paddy test, Rate 125 g/ha, scale 0 to 100 (0 no effect, 100 complete control)
[10] = flooded paddy test, Rate 16 g/ha, visually evaluated after 12 to 14 days, 0 = no effect, 100 = complete control
[11] = flooded paddy test, under head Rate 16 g/ha, (own rate not given), after 12 to 14 days
[12] = Rate 16 g/ha, visually evaluated after 12 to 14 days, 0 = no effect, 100 = complete control
[13] = under head Rate 16 g/ha, (own rate not given), after 12 to 14 days
[14] = Rate 125 g/ha, scale 0 to 100, 0 no effect, 100 complete control
[15] = Rate 250 g/ha, scale 0 to 100 (0 no effect, 100 complete control)
[16] = Rate 500 g/ha, scale 0 to 100 (0 no effect, 100 complete control)

SMILES	Plant response rating, Barnyardgrass [1]	Plant response rating, Ducksalad [2]	Plant response rating, Rice (rice (Oryza saliva))	Plant response rating, Flatsedge [3]	Ducksalad plant response rating ([4]; Flooded Paddy, Rate 250 g/ha)	Plant response rating, Ducksalad [4, 8]	Plant response rating, Ducksalad [4, 9]	Flatsedge plant response rating ([5]; Rate 250 g/ha)	Flatsedge plant response rating ([5]; Rate 500 g/ha)	Plant response rating, Flatsedge ([5]; Rate 62 g/ha)	Plant response rating, Flatsedge ([5]; Rate 125 g/ha)	Ducksalad plant response rating ([4]; Flooded Paddy, Rate 500 g/ha)	further results
O=C1C(n2ccc(C3CC3)n2)CCN1c1cccc(C(F)(F)F)c1 (stereo not shown) [Compound 8]	100	80	90	100	40	0	20	100	100	30	90	–	Plant response rating, Ducksalad ([4]; Flooded Paddy, Rate 500 g/ha, scale 0 to 100): 70; Plant response rating, Ducksalad ([4]; Flooded Paddy, Rate 1000 g/ha, scale 0 to 100): 100; Flatsedge plant response rating ([5]; rate of this column group stands in head line r653, not shown (group before Rate 500 g/ha)): 100
CCC(C)c1ccn(C2OCN(c3cccc(C(F)(F)F)c3)C2=O)n1 (stereo not shown) [Compound 24]	100	100	90	100	100	60	100	100	100	100	100	100	Plant response rating (scale 0 to 100), Ducksalad [4, 10]: 50; Plant response rating (scale 0 to 100), Ducksalad [4, 11]: 50; Plant response rating (scale 0 to 100), Flatsedge [5, 12]: 100; Plant response rating (scale 0 to 100), Flatsedge [5, 13]: 100
CC(C)c1ccn(C2SCN(c3cccc(OC(F)(F)F)c3)C2=O)n1 (stereo not shown) [Compound 31]	100	100	90	100	100	70	90	100	100	100	100	100	–
CCC(C)c1ccn(C2SCN(c3cccc(OC(F)(F)F)c3)C2=O)n1 (stereo not shown) [Compound 32]	100	100	100	100	100	50	80	100	100	100	100	80	–
CC(C)(C)c1ccn(C2CCN(c3cccc(Br)c3)C2=O)n1 (stereo not shown) [Compound 33]	0	0	0	0	–	–	–	–	–	–	–	–	–
COc1cc(N2CCC(n3ccc(C(C)(C)C)n3)C2=O)ccc1C (stereo not shown) [Compound 42]	100	100	100	100	100	100	100	100	100	100	100	100	Plant response rating (scale 0 to 100), Ducksalad [4, 10]: 90; Plant response rating (scale 0 to 100), Ducksalad [4, 11]: 80; Plant response rating (scale 0 to 100), Flatsedge [5, 12]: 100; Plant response rating (scale 0 to 100), Flatsedge [5, 13]: 100
O=C1C(n2ccc(C3CCCCC3)n2)SCN1c1cccc(OC(F)(F)F)c1 (stereo not shown) [Compound 50]	100	100	60	100	80	0	70	90	100	80	90	90	–
O=C1C(n2ccc(C3CCCCC3)n2)OCN1c1cccc(C(F)(F)F)c1 (stereo not shown) [Compound 51]	100	100	30	100	40	0	0	100	100	40	90	70	–
O=C1C(n2ccc(C3CCCCC3)n2)SCN1c1cccc(C(F)(F)F)c1 (stereo not shown) [Compound 52]	100	100	50	100	40	20	–	100	100	90	90	100	–
COc1cc(N2CCC(n3ccc(C(C)C)n3)C2=O)ccc1Cl (stereo not shown) [Compound 120]	–	–	–	–	100	70	100	100	100	90	100	100	Plant response rating, Bermudagrass ([6]; Rate 62 g/ha, scale 0 to 100): 0; Plant response rating, Bermudagrass [6, 14]: 0; Plant response rating, Bermudagrass [6, 15]: 0; Plant response rating, Bermudagrass [6, 16]: 70; Plant response rating, Lambsquarters ([7]; Rate 62 g/ha, scale 0 to 100): 50; Plant response rating, Lambsquarters [7, 15]: 90; Plant response rating, Lambsquarters [7, 16]: 100; Plant response rating, Sunflower (Sunflower): 60
CCCC(C)c1ccn(C2CCN(c3ccc(Cl)c(OC)c3)C2=O)n1 (stereo not shown) [Compound 121]	–	–	–	–	60	0	0	100	100	100	100	90	Plant response rating, Bermudagrass ([6]; Rate 62 g/ha, scale 0 to 100): 0; Plant response rating, Bermudagrass [6, 14]: 0; Plant response rating, Bermudagrass [6, 15]: 0; Plant response rating, Bermudagrass [6, 16]: 0; Plant response rating, Lambsquarters ([7]; Rate 62 g/ha, scale 0 to 100): 90; Plant response rating, Lambsquarters [7, 15]: 100; Plant response rating, Lambsquarters [7, 16]: 100; Plant response rating, Sunflower (Sunflower): 10
Cc1ccc(N2CCC(n3ccc(C(C)(C)C)n3)C2=O)cc1I (stereo not shown) [Compound 122]	–	–	–	–	30	20	20	80	100	0	80	60	Plant response rating, Bermudagrass ([6]; Rate 62 g/ha, scale 0 to 100): 0; Plant response rating, Bermudagrass [6, 14]: 0; Plant response rating, Bermudagrass [6, 15]: 0; Plant response rating, Bermudagrass [6, 16]: 0; Plant response rating, Lambsquarters ([7]; Rate 62 g/ha, scale 0 to 100): 100; Plant response rating, Lambsquarters [7, 15]: 100; Plant response rating, Lambsquarters [7, 16]: 100; Plant response rating, Sunflower (Sunflower): 0
